Experimental data published in article PMC7570910, “8-Hydroxyquinoline Glycoconjugates Containing Sulfur at the Sugar Anomeric Position—Synthesis and Preliminary Evaluation of Their Cytotoxicity” (Molecules, 2020).

How the values were obtained:
HCT-116 cells = assay: MTT cytotoxicity assay, HCT-116; format: cell-based; details: Homo sapiens, incubation time 24 h, mean ± SD (n = 3)
[1] = biological target: T1, β-galactosidase from Aspergillus oryzae (Aspergillus oryzae, UniProt Q2UCU3); assay: Glycoconjugate stability under the action of β-galactosidase (hydrolysis followed by TLC); format: in vitro ADME; details: 0.089 unit enzyme, 5 mM substrate, phosphate-citrate buffer pH 4.5, 30 °C, TLC at 10 min to 24 h
T1 construct: purchased Sigma-Aldrich G5160
T1 sequence (Q2UCU3 19-1005): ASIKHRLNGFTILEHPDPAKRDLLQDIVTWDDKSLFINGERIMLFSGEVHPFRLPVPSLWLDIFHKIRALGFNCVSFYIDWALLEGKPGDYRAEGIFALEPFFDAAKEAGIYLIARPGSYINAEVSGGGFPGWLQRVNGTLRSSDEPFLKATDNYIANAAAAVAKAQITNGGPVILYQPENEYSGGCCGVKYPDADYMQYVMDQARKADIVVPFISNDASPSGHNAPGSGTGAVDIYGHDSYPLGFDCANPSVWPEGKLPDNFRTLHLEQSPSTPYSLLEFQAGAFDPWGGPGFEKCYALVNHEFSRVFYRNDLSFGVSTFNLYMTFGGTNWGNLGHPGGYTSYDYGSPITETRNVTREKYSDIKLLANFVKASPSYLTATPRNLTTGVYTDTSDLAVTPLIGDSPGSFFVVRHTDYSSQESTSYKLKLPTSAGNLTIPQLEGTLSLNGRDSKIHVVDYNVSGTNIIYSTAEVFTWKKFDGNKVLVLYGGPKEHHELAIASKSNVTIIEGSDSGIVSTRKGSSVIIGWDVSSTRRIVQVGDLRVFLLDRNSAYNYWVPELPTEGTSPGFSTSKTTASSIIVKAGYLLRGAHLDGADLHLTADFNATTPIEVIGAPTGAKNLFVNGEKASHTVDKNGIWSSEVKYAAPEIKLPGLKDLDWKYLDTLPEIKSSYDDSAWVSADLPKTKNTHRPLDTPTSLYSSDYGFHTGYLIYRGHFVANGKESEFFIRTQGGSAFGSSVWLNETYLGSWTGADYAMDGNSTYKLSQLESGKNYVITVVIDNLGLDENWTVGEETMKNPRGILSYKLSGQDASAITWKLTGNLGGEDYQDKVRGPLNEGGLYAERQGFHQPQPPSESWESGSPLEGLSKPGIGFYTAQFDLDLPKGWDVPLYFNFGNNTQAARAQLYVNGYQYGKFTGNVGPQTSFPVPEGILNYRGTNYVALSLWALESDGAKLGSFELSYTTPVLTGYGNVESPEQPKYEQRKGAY
Experimental: As part of the research, the effect of introducing a sulfur atom into the anomeric position of sugar was assessed. […] This was particularly evident for the 8-HQ derivatives 51 and 52, for which the cytotoxic activity was about twice as high as that of their structural counterparts with an anomeric oxygen atom (Figure 3). Unfortunately, an increase in cytotoxicity for glycoconjugates containing anomeric sulfur was observed, both to neoplastic cells and to healthy cells. […] In order to verify this assumption, two galactoconjugates 56 and 64 (being the deprotected counterparts of galactoconjugates 52 and 60) and their two analogs with anomeric oxygen were chosen and subjected to hydrolysis reactions using β-galactosidase from Aspergillus oryzae.
8-Hydroxyquinoline Glycoconjugates Containing
Sulfur at the Sugar Anomeric Position - Synthesis and Preliminary Evaluation of Their Cytotoxicity […]
The following reagents were pipetted into a test tube: 0.4 mL of 20 mM Phosphate-Citrate Buffer (C) and 0.5 mL of the appropriate 10 mM Substrate Solution ( D1-D4), which then thoroughly mixed and equilibrated to 30 °C with a thermoblock. […] The progress of the reactions was monitored by thin-layer chromatography (TLC) in a CHCl3:CH3OH (5:1) eluents system. […]

MCF-7 cells = assay: MTT cytotoxicity assay, MCF-7; format: cell-based; details: Homo sapiens, MCF7, incubation time 72 h, mean ± SD (n = 3)
Experimental: In vitro cytotoxicity studies of the obtained building blocks and glycoconjugates were carried out on cell lines characterized by the high expression of GLUT transporters and the strongly changed glucose metabolism (strong Warburg effect). […] Cytotoxicity was evaluated using the MTT assay.
The human cell line MCF-7 was obtained from collections at the Maria Sklodowska-Curie Memorial Cancer Center and Institute of Oncology, branch in Gliwice, Poland. […] The culture media were purchased from EuroClone and HyClone. Fetal bovine serum (FBS) was delivered by EURx, Poland, and Antibiotic Antimycotic Solution (100×) by Sigma-Aldrich, Germany. The cells were cultured under standard conditions at 37 °C in a humidified atmosphere at 5% CO2.
The viability of the cells was determined using an MTT (3-[4,5–dimethylthiazol-2-yl]-2,5-diphenyltetrazolium bromide) test (Sigma-Aldrich). Stock solutions of tested compounds were prepared in DMSO and diluted with the appropriate volumes of the growth medium directly before the experiment. […] The cell cultures were incubated for 24 h at 37 °C in a humidified atmosphere of 5% CO2. Then, the culture medium was removed, replaced with the solution of the tested compounds in medium with varying concentrations, and incubated for further 24 h or 72 h. After that, the medium was removed, and the MTT solution (50 µL, 0.5 mg/mL in PBS) was added. After 3 h of incubation, the MTT solution was removed, and the precipitated formazan was dissolved in DMSO. Finally, the absorbance at the 570 nm wavelength was measured spectrophotometrically with the plate reader. The experiment was conducted in at least three independent iterations with four technical repetitions. The IC50 values were calculated using CalcuSyn software (version 2.0, Biosoft, Cambridge, UK).

**Q.** For `OC[C@H]1O[C@@H](SCc2cn(CCCOc3cccc4cccnc34)nn2)[C@H](O)[C@@H](O)[C@H]1O` [Compound 64], which IC50 (HCT-116 cells) is on record?
**A.** The IC50 was > 800 µM.

**Q.** And the “Hydrolysis in the presence of β-galactosidase” value [1]?
**A.** Its value is “did not undergo hydrolysis”.

**Q.** And the IC50 (MCF-7 cells)?
**A.** Its IC50 is > 800 µM.
